Test results as given in PubChem BioAssay AID330 (DTP/NCI, 2004).
Several values for one entry are separate records, joined by “and”; a condition that tells them apart may be missing. Identical values can stand only once. Toxic doses and inconclusive results are not listed. How the source made its calls: active means survival T/C of 150% or more; inactive means T/C below 125% in these data.

Tested on: P388 leukemia ip, CD2F1 mice, survival T/C
Test: NCI In Vivo Anticancer Drug Screen. Data for tumor model P388 Leukemia (intraperitoneal) in CD2F1 (CDF1) mice
Conditions: endpoint: median survival time, higher = longer survival
Method in brief: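 Mice carrying the transplanted tumor received test compound or vehicle. Survival was recorded in each group, and the value is the treated-group measurement divided by that of the vehicle-treated control group.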

[1] = dose: 60.0 mg/kg/injection, schedule: Q01DX005 (ip), vehicle: saline with Tween-80
[2] = dose: 120.0 mg/kg/injection, schedule: Q01DX005 (ip), vehicle: saline with Tween-80
[3] = dose: 50.0 mg/kg/injection, schedule: Q01DX009 (ip), vehicle: saline
[4] = dose: 100.0 mg/kg/injection, schedule: Q01DX009 (ip), vehicle: saline
[5] = dose: 200.0 mg/kg/injection, schedule: Q01DX009 (ip), vehicle: saline
[6] = dose: 50.0 mg/kg/injection, schedule: Q01DX005 (ip), vehicle: saline with Tween-80
[7] = dose: 240.0 mg/kg/injection, schedule: Q01DX005 (ip), vehicle: saline with Tween-80
[8] = dose: 25.0 mg/kg/injection, schedule: Q01DX009 (ip), vehicle: Klucel (hydroxypropylcellulose) (HPC)
[9] = dose: 50.0 mg/kg/injection, schedule: Q01DX005 (ip), vehicle: saline
[10] = dose: 100.0 mg/kg/injection, schedule: Q01DX005 (ip), vehicle: saline
[11] = dose: 200.0 mg/kg/injection, schedule: Q01DX005 (ip), vehicle: saline
[12] = dose: 50.0 mg/kg/injection, schedule: Q01DX009 (ip), vehicle: saline with Tween-80
[13] = dose: 100.0 mg/kg/injection, schedule: Q01DX009 (ip), vehicle: saline with Tween-80
[14] = dose: 200.0 mg/kg/injection, schedule: Q01DX009 (ip), vehicle: saline with Tween-80
[15] = dose: 100.0 mg/kg/injection, schedule: Q01DX001 (ip), vehicle: saline with Tween-80
[16] = dose: 200.0 mg/kg/injection, schedule: Q01DX001 (ip), vehicle: saline with Tween-80
[17] = dose: 50.0 mg/kg/injection, schedule: Q01DX009 (ip), vehicle: Klucel (hydroxypropylcellulose) (HPC)
[18] = dose: 25.0 mg/kg/injection, schedule: Q01DX001 (ip), vehicle: saline with Tween-80
[19] = dose: 50.0 mg/kg/injection, schedule: Q01DX001 (ip), vehicle: saline with Tween-80
[20] = dose: 50.0 mg/kg/injection, schedule: Q01DX005 (ip), vehicle: Klucel (hydroxypropylcellulose) (HPC)
[21] = dose: 100.0 mg/kg/injection, schedule: Q01DX005 (ip), vehicle: Klucel (hydroxypropylcellulose) (HPC)
[22] = dose: 200.0 mg/kg/injection, schedule: Q01DX005 (ip), vehicle: Klucel (hydroxypropylcellulose) (HPC)
[23] = dose: 100.0 mg/kg/injection, schedule: Q04DX003 (ip), vehicle: Klucel (hydroxypropylcellulose) (HPC)
[24] = dose: 200.0 mg/kg/injection, schedule: Q04DX003 (ip), vehicle: Klucel (hydroxypropylcellulose) (HPC)
[25] = dose: 400.0 mg/kg/injection, schedule: Q04DX003 (ip), vehicle: Klucel (hydroxypropylcellulose) (HPC)

Measured: T/C

S=C(Nc1ccccc1)SCc1ccc2c(c1)OCO2
inactive: dose: 100.0 mg/kg/injection, schedule: Q01DX001 (ip), vehicle: saline 98 % of control | dose: 200.0 mg/kg/injection, schedule: Q01DX001 (ip), vehicle: saline 101 % of control | dose: 400.0 mg/kg/injection, schedule: Q01DX001 (ip), vehicle: saline 101 % of control

CN1CCN(c2c(C(=O)Nc3ccc([N+](=O)[O-])cc3)cc([N+](=O)[O-])cc2[N+](=O)[O-])CC1
inactive: [1] 92 % of control | [2] 90 % of control

O=S(=O)(O)SCCCSS(=O)(=O)O
inactive: [3] 100 % of control | [4] 99 % of control | [5] 102 % of control

CCCCC(S)CS (stereo not drawn)
inactive: dose: 12.5 mg/kg/injection, schedule: Q01DX005 (ip), vehicle: saline with Tween-80 107 % of control | dose: 25.0 mg/kg/injection, schedule: Q01DX005 (ip), vehicle: saline with Tween-80 103 % of control | [6] 107 % of control and 110 % of control

CC1=C(C)NC(C)=C(C)N1
inactive: [3] 97 % of control | [4] 95 % of control | [5] 97 % of control

C[Si](C)(C)CNC(=S)S
inactive: [1] 113 % of control | [2] 115 % of control | [7] 112 % of control

ClCCn1c(CCl)nc2ccc(Cl)cc21
inactive: dose: 3.12 mg/kg/injection, schedule: Q01DX009 (ip), vehicle: Klucel (hydroxypropylcellulose) (HPC) 93 % of control | dose: 6.25 mg/kg/injection, schedule: Q01DX009 (ip), vehicle: Klucel (hydroxypropylcellulose) (HPC) 101 % of control | dose: 12.5 mg/kg/injection, schedule: Q01DX009 (ip), vehicle: Klucel (hydroxypropylcellulose) (HPC) 100 % of control | [8] 100 % of control

COC(=O)C1C(NC(C)(C)C)CCN1C(C)=O (stereo not drawn)
inactive: [9] 89 % of control | [10] 88 % of control | [11] 89 % of control

COC(=O)c1cc2cc3ccccc3cc2cc1C(=O)OC
inactive: dose: 15.0 mg/kg/injection, schedule: Q01DX005 (ip), vehicle: saline with Tween-80 100 % of control | dose: 30.0 mg/kg/injection, schedule: Q01DX005 (ip), vehicle: saline with Tween-80 101 % of control | [1] 102 % of control

Cc1ccnn1C(C(=O)c1ccccc1)c1ccccc1 (stereo not drawn)
inactive: [12] 108 % of control | [13] 105 % of control | [14] 105 % of control

CC(Oc1ccc(Cl)cc1Cl)C(=O)NC(Cc1ccccc1)C(=O)O (stereo not drawn)
inactive: [6] 102 % of control | dose: 100.0 mg/kg/injection, schedule: Q01DX005 (ip), vehicle: saline with Tween-80 110 % of control | dose: 200.0 mg/kg/injection, schedule: Q01DX005 (ip), vehicle: saline with Tween-80 102 % of control

BrCCc1ccccc1Br
inactive: dose: 50.0 mg/kg/injection, schedule: Q01DX005 (ip), vehicle: distilled water + alcohol 105 % of control | dose: 100.0 mg/kg/injection, schedule: Q01DX005 (ip), vehicle: distilled water + alcohol 97 % of control | dose: 200.0 mg/kg/injection, schedule: Q01DX005 (ip), vehicle: distilled water + alcohol 97 % of control

O=C(Cc1ccccc1)C1=S=C2SCCCN2C1=O
inactive: [15] 105 % of control | [16] 97 % of control | dose: 400.0 mg/kg/injection, schedule: Q01DX001 (ip), vehicle: saline with Tween-80 92 % of control

CN(C)C(=O)C[n+]1ccccc1
inactive: dose: 12.5 mg/kg/injection, schedule: Q01DX009 (ip), vehicle: saline 99 % of control | dose: 25.0 mg/kg/injection, schedule: Q01DX009 (ip), vehicle: saline 98 % of control | [3] 101 % of control

Cc1cc(N)c2ccccc2c1O
inactive: dose: 12.5 mg/kg/injection, schedule: Q01DX009 (ip), vehicle: saline with Tween-80 110 % of control | dose: 25.0 mg/kg/injection, schedule: Q01DX009 (ip), vehicle: saline with Tween-80 124 % of control | [12] 108 % of control

Cc1cc(OCCS(=O)(=O)C(CCOS(C)(=O)=O)COS(C)(=O)=O)cc(C)c1Cl (stereo not drawn)
inactive: [17] 105 % of control | dose: 100.0 mg/kg/injection, schedule: Q01DX009 (ip), vehicle: Klucel (hydroxypropylcellulose) (HPC) 102 % of control | dose: 200.0 mg/kg/injection, schedule: Q01DX009 (ip), vehicle: Klucel (hydroxypropylcellulose) (HPC) 101 % of control

C[n+]1ccc(-c2nc(-c3cc[n+](C)cc3)nc(-c3cc[n+](C)cc3)n2)cc1
inactive: [18] 102 % of control | [19] 99 % of control | [15] 108 % of control

CCCN(CCC)C(=O)C(c1ccccc1)C1(O)CCCC1 (stereo not drawn)
inactive: [20] 101 % of control | [21] 102 % of control | [22] 102 % of control

CC(=O)/C(=C\c1ccc(C)cc1)C(=O)CCN(C)C
inactive: [9] 108 % of control | [10] 108 % of control | [11] 111 % of control

CCOC(=O)C(C(=O)OCC)C1(O)C2CCCC21 (stereo not drawn)
inactive: dose: 100.0 mg/kg/injection, schedule: Q04DX002 (ip), vehicle: saline with Tween-80 101 % of control | dose: 200.0 mg/kg/injection, schedule: Q04DX002 (ip), vehicle: saline with Tween-80 101 % of control | dose: 400.0 mg/kg/injection, schedule: Q04DX002 (ip), vehicle: saline with Tween-80 104 % of control

Cc1cccc(NC(=O)CS)n1
inactive: [8] 98 % of control | [17] 95 % of control

C[C@H]1CC(c2ccc(Cl)cc2)[C@@H](c2ccccc2)C(=O)O1 (stereo partly drawn)
inactive: [23] 92 % of control | [24] 93 % of control | [25] 92 % of control

O=C1C(CO)NC(=S)N1c1ccccc1 (stereo not drawn)
inactive: dose: 12.5 mg/kg/injection, schedule: Q01DX001 (ip), vehicle: saline with Tween-80 109 % of control | [18] 102 % of control | [19] 97 % of control | [15] 105 % of control | [16] 102 % of control

FC(F)(F)C1(C(F)(F)F)OP2(c3ccccc3)(OC(C(F)(F)F)(C(F)(F)F)c3ccccc32)c2ccccc21
inactive: [20] 98 % of control | [21] 91 % of control | [22] 100 % of control

CN(C)CC1(c2ccccc2)C(=O)N(C)C(=O)N(C2CCCCC2)C1=O (stereo not drawn)
inactive: [12] 100 % of control | [13] 105 % of control | [14] 115 % of control

O=C(O)C(O)C(O)C(O)C(=O)O (stereo not drawn)
inactive: [3] 101 % of control | [4] 107 % of control | [5] 91 % of control

NC(=S)c1cccc(/C=N/n2cnnc2)c1
inactive: [23] 97 % of control | [24] 93 % of control | [25] 90 % of control

COc1cc(C2c3cc4c(c(OC)c3C(O)C3CC(=O)OC23)OCO4)cc(OC)c1OC (stereo not drawn)
inactive: [1] 115 % of control | [2] 116 % of control

CCN(CC)c1ccc2cc(-n3nnc4ccccc43)c(=O)oc2c1
inactive: [1] 96 % of control | [2] 96 % of control | [7] 99 % of control

COc1cccc(/C=N/C(=S)NC2(C)C3CCC(C3)C2(C)C)c1O (stereo not drawn)
inactive: dose: 12.5 mg/kg/injection, schedule: Q01DX009 (ip), vehicle: olive oil, sesame oil, peanut oil 105 % of control | dose: 25.0 mg/kg/injection, schedule: Q01DX009 (ip), vehicle: olive oil, sesame oil, peanut oil 102 % of control | dose: 50.0 mg/kg/injection, schedule: Q01DX009 (ip), vehicle: olive oil, sesame oil, peanut oil 99 % of control | dose: 100.0 mg/kg/injection, schedule: Q01DX009 (ip), vehicle: olive oil, sesame oil, peanut oil 97 % of control | dose: 200.0 mg/kg/injection, schedule: Q01DX009 (ip), vehicle: olive oil, sesame oil, peanut oil 94 % of control | dose: 400.0 mg/kg/injection, schedule: Q01DX009 (ip), vehicle: olive oil, sesame oil, peanut oil 97 % of control
